# Assay results from patent US20260041744A1, “Methods for Treating Pompe Disease” (Amicus Therapeutics, Inc., priority 2022, published 2026).
# What was measured:
# [1] = system: adults with Pompe disease; assay: Study ATB200-02: SGIC and PGIC; format: in vivo, human; conditions: 48 months follow-up
# [2] = system: adults with Pompe disease; assay: Study ATB200-02: plasma/serum creatine kinase (CK); conditions: for mean reduction from baseline in plasma CK: b512 prints a minus sign
# Protocol: The change from baseline (CFBL) in 6MWD, % predicted sitting FVC, manual muscle test (MMT) and biomarkers—urine glucose tetrasaccharide (Hex4) and serum creatine kinase (CK)—were assessed at regular intervals.
# [3] = Cohort 1, ambulatory ERT-experienced, N = 7
# [4] = Cohort 2, non-ambulatory ERT-experienced, N = 5
# [5] = Cohort 3, ambulatory ERT-naïve, N = 6
# [6] = Cohort 4, ambulatory ERT-experienced, N = 6
substance,measurement,setting,value
"ATB200/miglustat: two-component therapy: cipaglucosidase alfa (ATB200) administered in conjunction with miglustat (AT2221), a stabilizer of cipaglucosidase alfa","PGIC: Declined, %",[1]; [3],(0) %
same,"PGIC: Improved, %",[1]; [3],(57.1) %
same,"PGIC: No change, %",[1]; [3],(42.9) %
same,"SGIC; Overall physical wellbeing: Declined, %",[1]; [3],(0) %
same,"SGIC; Overall physical wellbeing: Improved, %",[1]; [3],(85.7) %
same,"SGIC; Overall physical wellbeing: No change, %",[1]; [3],(14.3) %
same,"PGIC: Declined, %",[1]; [4],(0) %
same,"PGIC: Improved, %",[1]; [4],(60.0) %
same,"PGIC: No change, %",[1]; [4],(40.0) %
same,"SGIC; Overall physical wellbeing: Declined, %",[1]; [4],(0) %
same,"SGIC; Overall physical wellbeing: Improved, %",[1]; [4],(60.0) %
same,"SGIC; Overall physical wellbeing: No change, %",[1]; [4],(40.0) %
same,"PGIC: Declined, %",[1]; [5],(0) %
same,"PGIC: Improved, %",[1]; [5],(100.0) %
same,"PGIC: No change, %",[1]; [5],(0) %
same,"SGIC; Overall physical wellbeing: Declined, %",[1]; [5],(0) %
same,"SGIC; Overall physical wellbeing: Improved, %",[1]; [5],(83.3) %
same,"SGIC; Overall physical wellbeing: No change, %",[1]; [5],(16.7) %
same,"PGIC: Declined, %",[1]; [6],(0) %
same,"PGIC: Improved, %",[1]; [6],(33.3) %
same,"PGIC: No change, %",[1]; [6],(66.7) %
same,"SGIC; Overall physical wellbeing: Declined, %",[1]; [6],(16.7) %
same,"SGIC; Overall physical wellbeing: Improved, %",[1]; [6],(66.7) %
same,"SGIC; Overall physical wellbeing: No change, %",[1]; [6],(16.7) %
same,"Serum creatine kinase, % CFBL mean","[2]; Ambulatory ERT-experienced, 12 months",−20.5%
same,"Serum creatine kinase, % CFBL mean","[2]; Ambulatory ERT-experienced, 24 months",−29.9%
same,"Serum creatine kinase, % CFBL mean","[2]; Ambulatory ERT-experienced, 36 months",−30.0%
same,"Serum creatine kinase, % CFBL mean","[2]; Ambulatory ERT-experienced, 48 months",−35.3%
same,"Serum creatine kinase, % CFBL mean","[2]; Ambulatory ERT-naïve, 12 months",−50.6%
same,"Serum creatine kinase, % CFBL mean","[2]; Ambulatory ERT-naïve, 24 months",−46.5%
same,"Serum creatine kinase, % CFBL mean","[2]; Ambulatory ERT-naïve, 36 months",−50.7%
same,"Serum creatine kinase, % CFBL mean","[2]; Ambulatory ERT-naïve, 48 months",−35.9%
same,mean reduction from baseline in plasma CK,"[2]; Cohort 2 (non-ambulatory ERT-experienced), 12 months, listed as cipaglucosidase alfa plus miglustat",20.8%
same,mean reduction from baseline in plasma CK,"[2]; Cohort 2 (non-ambulatory ERT-experienced), 12 months, listed as cipaglucosidase alfa/miglustat",−20.8%
same,mean reduction from baseline in plasma CK,"[2]; Cohort 2, 24 months, listed as cipaglucosidase alfa plus miglustat",25.3%
same,mean reduction from baseline in plasma CK,"[2]; Cohort 2, 24 months, listed as cipaglucosidase alfa/miglustat",−25.3%
same,mean reduction from baseline in plasma CK,"[2]; Cohort 2, 36 months, listed as cipaglucosidase alfa plus miglustat",27.1%
same,mean reduction from baseline in plasma CK,"[2]; Cohort 2, 36 months, listed as cipaglucosidase alfa/miglustat",−27%
same,mean reduction from baseline in plasma CK,"[2]; Cohort 2, 48 months, listed as cipaglucosidase alfa plus miglustat",23.7%
same,mean reduction from baseline in plasma CK,"[2]; Cohort 2, 48 months, listed as cipaglucosidase alfa/miglustat",−23.7%
same,patients with abnormal baseline CK who had normal CK levels at Month 48,[2]; ERT-experienced (two of six),33.3%
same,patients whose plasma CK decreased numerically from baseline (n/N),"[2]; ERT-experienced, 12 months",13/15
same,patients whose plasma CK decreased numerically from baseline (n/N),"[2]; ERT-experienced, 24 months",14/15
same,patients whose plasma CK decreased numerically from baseline (n/N),"[2]; ERT-experienced, 36 months",9/11
same,patients whose plasma CK decreased numerically from baseline (n/N),"[2]; ERT-experienced, 48 months",8/9
same,CK status at Month 48 of patients with abnormal baseline CK,[2]; ERT-naïve (two of five abnormal at baseline),remained abnormal at Month 48
same,patients whose plasma CK decreased numerically from baseline (n/N),"[2]; ERT-naïve, 12 months",6/6
same,patients whose plasma CK decreased numerically from baseline (n/N),"[2]; ERT-naïve, 24 months",6/6
same,patients whose plasma CK decreased numerically from baseline (n/N),"[2]; ERT-naïve, 36 months",5/5
same,patients whose plasma CK decreased numerically from baseline (n/N),"[2]; ERT-naïve, 48 months",4/5
same,"Serum creatine kinase, % CFBL mean","[2]; Non-ambulatory ERT-experienced, 12 months",−20.8%
same,"Serum creatine kinase, % CFBL mean","[2]; Non-ambulatory ERT-experienced, 24 months",−25.3%
